Results published in patent EP3095787A1, “[…] ACTIVE COMPOUNDS AS DAG-LIPASE INHIBITORS” (Universiteit Leiden, priority 2015, dated 2016).
Entries after “also recorded” stand apart in the source; their conditions may differ.

What was measured:
hDAGL-β = molecular target: T1, hDAGL-β (Homo sapiens, UniProt Q8NCG7); assay: Biochemical assay with para-nitrophenylbutyrate as surrogate substrate on human DAGL-β; settings: n=4
T1 sequence (Q8NCG7 1-672): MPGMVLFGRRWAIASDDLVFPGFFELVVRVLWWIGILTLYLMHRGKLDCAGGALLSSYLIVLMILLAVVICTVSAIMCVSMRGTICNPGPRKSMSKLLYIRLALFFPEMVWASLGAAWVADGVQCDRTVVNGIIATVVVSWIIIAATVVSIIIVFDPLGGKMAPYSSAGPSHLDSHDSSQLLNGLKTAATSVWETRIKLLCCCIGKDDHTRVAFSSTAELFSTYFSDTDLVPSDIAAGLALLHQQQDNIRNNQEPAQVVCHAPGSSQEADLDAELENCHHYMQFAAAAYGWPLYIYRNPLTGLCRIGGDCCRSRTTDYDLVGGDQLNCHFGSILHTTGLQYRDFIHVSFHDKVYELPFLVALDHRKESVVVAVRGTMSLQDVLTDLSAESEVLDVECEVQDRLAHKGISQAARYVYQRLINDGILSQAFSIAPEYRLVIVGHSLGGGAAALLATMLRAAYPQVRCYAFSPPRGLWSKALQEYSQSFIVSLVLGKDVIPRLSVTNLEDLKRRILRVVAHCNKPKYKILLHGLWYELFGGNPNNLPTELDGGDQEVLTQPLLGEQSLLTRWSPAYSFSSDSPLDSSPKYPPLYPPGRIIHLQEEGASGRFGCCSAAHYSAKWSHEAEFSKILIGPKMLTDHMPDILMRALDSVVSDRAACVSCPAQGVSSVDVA

DAGL-β = molecular target: T2, DAGL-β (Mus musculus, UniProt Q91WC9); assay: Competitive ABPP with MB064 in mouse spleen membrane proteome; format: biochemical; settings: 10 µM compound, MB064 1.0 µM
T2 construct: from tissue; host or cells: mouse spleen membrane proteome
T2 sequence (Q91WC9 1-669): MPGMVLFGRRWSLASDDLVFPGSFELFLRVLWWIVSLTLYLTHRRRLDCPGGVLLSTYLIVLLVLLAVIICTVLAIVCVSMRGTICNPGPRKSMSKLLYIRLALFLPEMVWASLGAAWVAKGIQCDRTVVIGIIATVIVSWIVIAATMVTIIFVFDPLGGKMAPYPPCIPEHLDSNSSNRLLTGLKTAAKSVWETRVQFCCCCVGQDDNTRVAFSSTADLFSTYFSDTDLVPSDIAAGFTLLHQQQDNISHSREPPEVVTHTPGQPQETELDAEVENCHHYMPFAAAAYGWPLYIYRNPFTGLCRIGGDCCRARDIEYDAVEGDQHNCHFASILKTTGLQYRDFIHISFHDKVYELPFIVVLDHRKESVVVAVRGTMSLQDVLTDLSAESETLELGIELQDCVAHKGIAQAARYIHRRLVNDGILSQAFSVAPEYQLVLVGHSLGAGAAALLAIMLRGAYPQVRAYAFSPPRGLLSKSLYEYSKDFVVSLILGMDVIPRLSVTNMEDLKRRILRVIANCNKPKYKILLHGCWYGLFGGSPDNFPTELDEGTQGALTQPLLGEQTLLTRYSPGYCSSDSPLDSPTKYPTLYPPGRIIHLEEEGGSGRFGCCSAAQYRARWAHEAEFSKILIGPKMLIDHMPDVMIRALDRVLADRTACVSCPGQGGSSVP

recombinant human MAGL = molecular target: T3, recombinant human MAGL (Homo sapiens, UniProt Q99685); assay: MAGL assay (glycerol detection, 2-AG as substrate); format: biochemical
T3 construct: expressed in transfected cells; membranes overexpressing MAGL
T3 sequence (Q99685 1-303): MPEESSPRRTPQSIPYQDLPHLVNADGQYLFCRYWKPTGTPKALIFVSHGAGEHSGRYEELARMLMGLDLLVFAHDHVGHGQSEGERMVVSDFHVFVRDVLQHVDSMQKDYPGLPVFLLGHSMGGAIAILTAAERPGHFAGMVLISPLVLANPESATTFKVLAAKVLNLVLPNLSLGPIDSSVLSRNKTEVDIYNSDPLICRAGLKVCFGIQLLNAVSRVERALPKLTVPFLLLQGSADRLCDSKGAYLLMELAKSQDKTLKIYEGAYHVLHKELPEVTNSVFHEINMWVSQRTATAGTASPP
Excerpt: This methodology allows for a more accurate quantification avoiding band overlap (as observed with gel-based assay) and allows screening over a broader range of specified serine hydrolases. Equal isotopic labeling and detection of light and medium peptides from proteins targeted by both ABPs (Figure 2G) were validated. Next, to investigate the selectivity of inventive compound 25 in this chemoproteomic assay was set out. […] In addition, the inventors tested compound 25 in biochemical assays using recombinant human MAGL and in a cannabinoid CB1 receptor radioligand displacement assay. A significant interaction ([…]) with these proteins of the endocannabinoid system could not be found. The CB1 displacement assays were performed as described below.
MAGL assay was performed as described below. Standard assays were performed under similar conditions as for the glycerol detection besed DAGL-α activity assay , but at a final protein concentration of 1.5 µg/mL (0.3 µg MAGL-overexpressing membranes per well) and with 2-arachidonoylglycerol (2-AG) as the substrate. 2-AG was directly added from a stock solution in acetonitrile and no Triton X-100 was added. Fluorescence was measured in 5 min intervals for 60 min. Final assay concentrations: 0.2 U/mL GK, GPO and HRP, 0.125 mM ATP, 10 µM Amplifu™Red, 25 µM 2-AG, 5% DMSO, 0.5% ACN in a total volume of 200 µL.

With `Cc1ccc(-c2cnc3nc(C(=O)CCCCCc4ccccc4)oc3c2)cc1` [Compound 25, 1-(6-(p-Tolyl)oxazolo[4,5-b]pyridin-2-yl)-6-phenylhexan-1-one] the IC50 (hDAGL-β) was 7.94 nM, the “Native DAGL-β activity (labeling by MB064)” value (DAGL-β) was “can block labeling of endogenously expressed DAGL-β; also recorded: could also be inhibited” and the Ki (recombinant human MAGL) was greater than 10000 nM.
